From patent US20230304996A1, “MICROFLUIDIC SYSTEM TO CONTROL PERFUSION, DIFFUSION AND COLLECTION OF MOLECULES OVER LONG PERIODS IN AN EX-VIVO SKIN MODEL” (GENOSKIN, priority 2020, published 2023)

Test: Diffusion of infused low molecular weight contrast agents in NativeSkin and FlowSkin models (surface colour intensity)
Type: in vitro ADME
Conditions: infused at 0.5 mg/mL, first hours of infusion; FLOWSKIN (with hypodermis) compared with NATIVESKIN (without)
Description: In order to characterize diffusion during the first hours of infusion in the NativeSkin° and in the FlowSkin®model, two low molecular weight contrast agents (KI: potassium Iodide, […]) and V patent blur (E131, 1 kDa) at 0.5 mg/mL have been infused in both models.
The result was similar with V patent blue (E131). Accordingly, it seems that the hypoderm facilitate the diffusion of low molecular weight agent within the FLOWSKIN® model.

[I-].[K+] [KI, potassium Iodide]
color intensity visible at the surface of the FLOWSKIN model versus the NATIVESKIN model: growing faster
